Read-outs that look alike come from different tables or passages of the source.

The test system of data set [1] is dogs. Conditions: cited from earlier work.
For data set [2], the system named is dogs. The data set is described as follows: Sevoflurane MAC reduction by I.V. maropitant during ovarian ligament stimulation in dogs (Example 1). It is filed as in vivo, dog. Conditions: for MAC Reduction (%, mean ± SD): sevoflurane, ovarian ligament stimulation. The method, then: The NK1 receptor antagonist maropitant, available as […]® from Pfizer, is an antiemetic approved for use in dogs. The ability of maropitant to impact the sevoflurane minimum alveolar concentration (MAC) level needed for surgery was tested in canine subjects. The eight animals were 1 year old, intact female, Walker hound mix. A first group was administered 1 mg/kg maropitant, I.V. over 5 minutes then 30 μg/kg/h. A second group was administered 5 mg/kg maropitant, I.V. over 5 minutes then 150 μg/kg/h. General anesthesia was induced using sevoflurane as described below and otherwise according to standard veterinary procedure. Animals were maintained in dorsal recumbency. MAC reduction effect was tested by stimulation of the ovarian ligament. Ovariectomy was performed on each animal at the end of the study. In each animal, sterile laparoscopy was performed to access the right ovary. Following thirty minutes of sevoflurane at steady state, end-tidal sevoflurane concentration was measured with a calibrated agent analyzer (Biochem). […] Esophageal temperature was 37.5-39° C. Ovarian ligament stimulation was performed using 6.61 Newton's of force with a calibrated grass force displacement transducer. FIG. 1 is a bar graph comparing the MAC reduction using I.V. maropitant during […] anesthesia. The observed MAC reduction is reported at sea level (mean±SD), and compared to published results for other MAC reduction agents in Table 1.

The subject of data set [3] is dogs. The data set can be described thus: Clinical trial of analgesia and comfort in dogs during and after spay surgery (laparotomy ovariohysterectomy), isoflurane anesthesia (Example 2). Details: dogs showing overt signs of nausea after surgery: dose or concentration left out as unconfirmed. Conditions: for Post-Operative Carprofen Rescue Analgesia (4 mg/kg, IV): dogs requiring a rescue dose: recovery period; for pain assessment, Visual Analogue Pain Scale (0-10), compared to control group: three hours following recovery from anesthesia, FIG. 6.

The subject of a further data set is cats. The data set is described as follows: Sevoflurane MAC during ovarian ligament stimulation in cats (Example 3). Type of data set: in vivo, cat. Conditions: for sevoflurane anesthetic requirement MAC (mean±SD): ovarian ligament stimulation, control MAC 2.96±0.32%. An excerpt:
Ten (10) female cats were anesthetized with sevoflurane. Following stabilization, the right ovarian ligament was accessed using a laparoscopic approach to determine the anesthetic minimum alveolar concentration (MAC). The ovarian ligament was stimulated using 500 grams of traction force. The MAC is reported as mean±SD, adjusted for calibration values and to sea-level. The anesthetic requirement MAC during stimulation of the ovary was 2.96±0.32%.

The mark [4] stands for this setting: maropitant 1 mg/kg SQ or morphine 0.5 mg/kg SQ before anesthesia.

On to `CNC1(c2ccccc2Cl)CCCCC1=O` (centres unmarked) [Ketamine], for which, in the data set on dogs [1] (dog, in vivo), the “MAC Reduction (%, mean ± SD)” value was 47%.

On to `Cc1cccc([C@H](C)c2cnc[nH]2)c1C` [Dexmedetomidine], for which the “MAC Reduction (%, mean ± SD)” value with dogs [1] (dexmedetomidine 0.5 μg/kg, 0.5 μg/kg/h, isoflurane, Pascoe et al., 2006) is on record as 18%; in the data set with dogs [1] (dexmedetomidine 3 μg/kg, 3 μg/kg/h, isoflurane, Pascoe et al., 2006), 59%.

`CC(C(=O)O)c1ccc2c(c1)[nH]c1ccc(Cl)cc12` (centres unmarked) [Carprofen]: the “MAC Reduction (%, mean ± SD)” value in the data set with dogs [1] (carprofen 4 mg/kg, sevoflurane, Yamashita et al., 2008) is 12%.

Consider `Oc1ccc2c(c1)[C@@]13CCCC[C@@]1(O)[C@@H](C2)N(CC1CCC1)CC3` [Butorphanol], for which the “MAC Reduction (%, mean ± SD)” value in the data set on dogs [1] (dog, in vivo) is listed as 8%.

Take `COc1ccc(C(C)(C)C)cc1CN[C@H]1C2CCN(CC2)[C@@H]1C(c1ccccc1)c1ccccc1` [Maropitant, (7R,8S)—N-[(5-tert-Butyl-2-methoxyphenyl)methyl]-7-[di(phenyl)methyl]-1-azabicyclo[2.2.2]octan-8-amine]: the “MAC Reduction (%, mean ± SD)” value in the data set on dogs [2] (maropitant 1 mg/kg I.V. over 5 minutes then 30 μg/kg/h) stood at 24%. Besides, the “MAC Reduction (%, mean ± SD)” value with dogs [2] (maropitant 5 mg/kg I.V. over 5 minutes then 150 μg/kg/h) is 30%. The “increase of the pain threshold during anesthesia” value in the data set on dogs [2] (summary of Example 1 (1 and 5 mg/kg)) is given as 24-30%. For the same molecule, in the data set with dogs [3] (setting [4]), the “average heart rate throughout surgery” value stood at 103±20 beats per minute, the “average respiratory rate throughout surgery” value was 21±12 breaths per minute, the “dogs that started eating within 3 hours following surgery” value is 65% and the “subjects responding with panting during surgical painful stimulation” value was 35%. The “Post-Operative Carprofen Rescue Analgesia (4 mg/kg, IV): dogs requiring a rescue dose” value in the data set on dogs [3] (setting [4]) is listed as 18%. Also, in the data set with dogs [3] (maropitant 1 mg/kg SQ or morphine 0.5 mg/kg SQ before anesthesia, FIG. 2), the “isoflurane anesthesia required during ovary ligation and resection (vaporizer setting)” value turned out to be 1.41±0.25%. The “isoflurane anesthesia required during skin closure” value in the data set with dogs [3] (maropitant 1 mg/kg SQ or morphine 0.5 mg/kg SQ before anesthesia, end of surgery, FIG. 4) came out at 1.26±0.19%. Besides, the “Post-Operative Carprofen Rescue Analgesia (4 mg/kg, IV): dogs requiring a rescue dose” value in the data set on dogs [3] (maropitant 1 mg/kg SQ or morphine 0.5 mg/kg SQ before anesthesia, listed as maropitant) is 18%. Moreover, in the data set with dogs [3], the “pain assessment, Visual Analogue Pain Scale (0-10), compared to control group” value was “showed fewer overt signs of pain and discomfort”. For the same molecule, in the data set with cats (higher maropitant dose IV), the “decrease of anesthetic requirement MAC” value is on record as 17% and the “sevoflurane anesthetic requirement MAC (mean±SD)” value is given as 2.45±0.43%. In addition, in the data set on cats (maropitant 1 mg/kg IV, 500 grams traction), the “sevoflurane anesthetic requirement MAC (mean±SD)” value was determined as 2.50±0.33%. Further, in the data set with cats (maropitant 1 mg/kg IV, p<0.01), the “decrease of anesthetic requirement MAC” value stood at 15%.

`CN1CC[C@]23c4c5ccc(O)c4O[C@H]2[C@@H](O)C=C[C@H]3[C@H]1C5` [Morphine, morphine]: the “MAC Reduction (%, mean ± SD)” value with dogs [1] (dog, in vivo) is reported as 35, 39%. The “dogs showing overt signs of nausea after surgery” value with dogs [3] (before anesthesia) amounted to 31%. In addition, in the data set on dogs [3] (setting [4]), the “average heart rate throughout surgery” value came to 115±23 beats per minute, the “average respiratory rate throughout surgery” value was 27±20 breaths per minute, the “dogs that started eating within 3 hours following surgery” value is 26% and the “dogs whose esophageal pH decreased below 5 during surgery (gastric regurgitation)” value is 29%. Further, in the data set on dogs [3] (setting [4]), the “subjects responding with panting during surgical painful stimulation” value was 38% and the “Post-Operative Carprofen Rescue Analgesia (4 mg/kg, IV): dogs requiring a rescue dose” value was 30%. Besides, the “Post-Operative Carprofen Rescue Analgesia (4 mg/kg, IV): dogs requiring a rescue dose” value in the data set with dogs [3] (maropitant 1 mg/kg SQ or morphine 0.5 mg/kg SQ before anesthesia, listed as morphine) is reported as 30%. In addition, the “pain assessment, Visual Analogue Pain Scale (0-10), compared to control group” value in the data set on dogs [3] is “only through the initial two hours of assessment”.

`CC(=O)c1ccc2c(c1)N(CCCN(C)C)c1ccccc1S2` [Acepromazine]: the “MAC Reduction (%, mean ± SD)” value with dogs [1] (acepromazine 0.04 mg/kg, halothane, Heard et al., 1986) is 40%.

Turning to `CCN(CC)CC(=O)Nc1c(C)cccc1C` [Lidocaine], the “MAC Reduction (%, mean ± SD)” value in the data set on dogs [1] (lidocaine 2 mg/kg, 50 μg/kg/min, isoflurane, Valverde et al., 2004) is on record as 19%; in the data set on dogs [1] (lidocaine 2 mg/kg, 200 μg/kg/min, isoflurane, Valverde et al., 2004), 43%.

On to `Cc1cnc(NC(=O)C2=C(O)c3ccccc3S(=O)(=O)N2C)s1` [Meloxciam], for which the “MAC Reduction (%, mean ± SD)” value with dogs [1] (meloxicam 0.2 mg/kg, sevoflurane, Yamashita et al., 2008) is 23%.

The record behind these values is patent US9446029B2, “Use of NK-1 receptor antagonists in management of visceral pain” (priority 2010, dated 2016).
